Type in all cases: in vivo
The subject of experiment [1] is Avena fatua (AVEFA). Briefly: Pre-emergence herbicidal activity, glasshouse pot test. As to conditions: Avena fatua, 480 h, rate 500 g/ha, evaluated after 20 days, read-out: Pre-emergence activity, AVEFA (100=total damage to plant; 0=no damage to plant). The procedure:
(§1) Monocotyledonous and dicotyledonous test plants were sown in sterilised standard soil in pots. After cultivation for one day (pre-emergence) or after 10 days cultivation (post-emergence) under controlled conditions in a glasshouse, the plants were sprayed with an aqueous spray solution derived from the formulation of the technical active ingredient in 0.6 ml acetone and 45 ml formulation solution containing 10.6% Emulsogen EL (Registry number 61791-12-6), 42.2% N-methylpyrrolidone, 42.2% dipropylene glycol monomethyl ether (Registry number 34590-94-8) and 0.2% X-77 (Registry number 11097-66-8). The test plants were then grown in a greenhouse under optimum conditions until, 14 or 15 days later for post-emergence and 20 days for pre-emergence, the test was evaluated (100=total damage to plant; 0=no damage to plant). Alopecurus myosuroides (ALOMY), Avena fatua (AVEFA), Lolium perenne (LOLPE), Setaria faberi (SETFA), Digitaria sanguinalis (DIGSA), Echinochloa crus-galli (ECHCG) Pre-Emergence Activity

The test system of experiment [2] is Setaria faberi (SETFA). The experiment is described as above. As to conditions: Setaria faberi, 480 h, rate 500 g/ha, evaluated after 20 days, read-out: Pre-emergence activity, SETFA (100=total damage to plant; 0=no damage to plant). The protocol:
as §1

For experiment [3], the system named is Lolium perenne (LOLPE). The description is as above. As to conditions: Lolium perenne, 480 h, rate 500 g/ha, evaluated after 20 days, read-out: Pre-emergence activity, LOLPE (100=total damage to plant; 0=no damage to plant). The protocol: as §1
The subject of experiment [4] is Digitaria sanguinalis (DIGSA). Described as above. As to conditions: Digitaria sanguinalis, 480 h, rate 500 g/ha, evaluated after 20 days, read-out: Pre-emergence activity, DIGSA (100=total damage to plant; 0=no damage to plant). The protocol:
as §1

The subject of experiment [5] is Echinochloa crus-galli (ECHCG). The experiment is described as above. The note with it: Echinochloa crus-galli, 480 h, rate 500 g/ha, evaluated after 20 days, read-out: Pre-emergence activity, ECHCG (100=total damage to plant; 0=no damage to plant). The protocol: as §1
The test system of experiment [6] is Alopecurus myosuroides (ALOMY). The description is as above. As to conditions: Alopecurus myosuroides, 480 h, rate 500 g/ha, evaluated after 20 days, read-out: Pre-emergence activity, ALOMY (100=total damage to plant; 0=no damage to plant). The protocol:
as §1

Experiment [7] relates to Avena fatua (AVEFA). Briefly: Post-emergence herbicidal activity, glasshouse pot test. As to conditions: Avena fatua, rate 125 g/ha, evaluated after 14 or 15 days, read-out: Post-emergence activity, AVEFA (100=total damage to plant; 0=no damage to plant). The protocol:
as §1, with “Post-Emergence” for “Pre-Emergence”

Experiment [8] has as its system Setaria faberi (SETFA). Described as above. As to conditions: Setaria faberi, rate 125 g/ha, evaluated after 14 or 15 days, read-out: Post-emergence activity, SETFA (100=total damage to plant; 0=no damage to plant). The protocol:
as §1, with “Post-Emergence” for “Pre-Emergence”

For experiment [9], the system named is Lolium perenne (LOLPE). Described as above. As to conditions: Lolium perenne, rate 125 g/ha, evaluated after 14 or 15 days, read-out: Post-emergence activity, LOLPE (100=total damage to plant; 0=no damage to plant). The protocol:
as §1, with “Post-Emergence” for “Pre-Emergence”

Experiment [10] relates to Digitaria sanguinalis (DIGSA). The experiment is described as above. The note with it: Digitaria sanguinalis, rate 125 g/ha, evaluated after 14 or 15 days, read-out: Post-emergence activity, DIGSA (100=total damage to plant; 0=no damage to plant). The procedure: as §1, with “Post-Emergence” for “Pre-Emergence”
Experiment [11] relates to Alopecurus myosuroides (ALOMY). Described as above. The note with it: Alopecurus myosuroides, rate 125 g/ha, evaluated after 14 or 15 days, read-out: Post-emergence activity, ALOMY (100=total damage to plant; 0=no damage to plant). The procedure:
as §1, with “Post-Emergence” for “Pre-Emergence”

For the compound `CCc1cc(C)cc(CC)c1C1=C(OC(=O)CC(C)(C)C)CC2(CCOCC2)CC1=O` [Compound P6], the pest or weed control at 500 g/ha in the experiment on Avena fatua (AVEFA) [1] came out at 90%; in the experiment with Setaria faberi (SETFA) [2] it was 70%; in the experiment with Lolium perenne (LOLPE) [3], 100%; in [4] it was 100%; in experiment [5], 70%; in experiment [6], 100%. In addition, the pest or weed control at 125 g/ha in the experiment with Avena fatua (AVEFA) [7] was found to be 80%; in the experiment on Setaria faberi (SETFA) [8] it was 0%; in the experiment with Lolium perenne (LOLPE) [9] it was 10%; in [10], 30%; in experiment [11], 60%.
Take `CCCCCCC(=O)OC1=C(c2c(CC)cc(C)cc2CC)C(=O)CC2(CCOCC2)C1` [Compound P10]: the pest or weed control at 500 g/ha (in the experiment on Avena fatua (AVEFA) [1]; in the experiment on Setaria faberi (SETFA) [2]; with Lolium perenne (LOLPE) [3]; in experiment [4]; in experiment [5]; in experiment [6]) was 100% in each case. The pest or weed control at 125 g/ha in the experiment with Avena fatua (AVEFA) [7] was determined as 100%; with Setaria faberi (SETFA) [8], 70%; with Lolium perenne (LOLPE) [9], 90%; in experiment [10], 80%; in experiment [11] it was 100%.
For `CCCC(CC)C(=O)OC1=C(c2c(CC)cc(C)cc2CC)C(=O)CC2(CCOCC2)C1` (stereo not drawn) [Compound P15], the pest or weed control at 500 g/ha came out at 90% in the experiment on Avena fatua (AVEFA) [1]; 70% in the experiment with Setaria faberi (SETFA) [2]; 100% with Lolium perenne (LOLPE) [3]; 90% in [4]; 60% in experiment [5]; 0% in [6]. Moreover, the pest or weed control at 125 g/ha with Avena fatua (AVEFA) [7] was determined as 70%; in the experiment with Setaria faberi (SETFA) [8], 40%; in the experiment with Lolium perenne (LOLPE) [9] it was 0%; in experiment [10], 70%; in experiment [11] it was 10%.
As to `CCc1cc(C)cc(CC)c1C1=C(OS(=O)(=O)CC)CC2(CCOCC2)CC1=O` [Compound P28], the pest or weed control at 500 g/ha in the experiment with Avena fatua (AVEFA) [1] is 30%; in the experiment with Setaria faberi (SETFA) [2], 70%; with Lolium perenne (LOLPE) [3], 80%; in experiment [4], 70%; in experiment [5] it was 10%; in experiment [6], 80%. The pest or weed control at 125 g/ha turned out to be 10% in the experiment on Avena fatua (AVEFA) [7]; 0% in the experiment on Setaria faberi (SETFA) [8]; 0% with Lolium perenne (LOLPE) [9]; 10% in experiment [10]; 0% in [11].
For `CCCOC1=C(c2c(CC)cc(C)cc2CC)C(=O)CC2(CCOCC2)C1` [Compound P41], the pest or weed control at 500 g/ha came out at 10% in the experiment on Avena fatua (AVEFA) [1]; 10% in the experiment on Setaria faberi (SETFA) [2]; 0% in the experiment on Lolium perenne (LOLPE) [3]; 90% in experiment [4]; 40% in experiment [5]; 70% in experiment [6]. Further, the pest or weed control at 125 g/ha with Avena fatua (AVEFA) [7] worked out at 10%; in the experiment on Setaria faberi (SETFA) [8] it was 0%; in the experiment with Lolium perenne (LOLPE) [9] it was 0%; in [10], 50%; in [11], 10%.
In the case of `CCC(=O)OC1=C(c2c(CC)cc(C)cc2CC)C(=O)CC2(CCOCC2)C1` [Compound P2], the pest or weed control at 500 g/ha (in the experiment on Avena fatua (AVEFA) [1]; in the experiment on Setaria faberi (SETFA) [2]; with Lolium perenne (LOLPE) [3]; in experiment [4]; in experiment [5]; in experiment [6]) was 100% each time. For the same compound, the pest or weed control at 125 g/ha in the experiment on Avena fatua (AVEFA) [7] came out at 90%; in the experiment with Setaria faberi (SETFA) [8], 70%; in the experiment with Lolium perenne (LOLPE) [9] it was 80%; in [10] it was 100%; in [11] it was 80%.

Values taken from patent US8084649B2, “Herbicides” (Syngenta Crop Protection, inc., priority 2007, dated 2011).
